# Data taken from PubChem BioAssay AID248 (DTP/NCI, 2004).
# Toxic doses and inconclusive results are not listed.
# System: L1210 leukemia ip in BDF1 mice, survival T/C
# Assay: NCI In Vivo Anticancer Drug Screen. Data for tumor model L1210 Leukemia (intraperitoneal) in B6D2F1 (BDF1) mice
# Conditions: endpoint: mean survival time, higher = longer survival
# Summary of the method: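 In this screen, tumor-bearing mice given compound are compared to those given vehicle, and their survival values are reported as a treated-to-control quotient.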
# [1] = dose: 200.0 mg/kg/injection, schedule: Q01DX009 (ip), vehicle: Klucel (hydroxypropylcellulose) (HPC)
# [2] = dose: 400.0 mg/kg/injection, schedule: Q01DX009 (ip), vehicle: Klucel (hydroxypropylcellulose) (HPC)
# [3] = dose: 100.0 mg/kg/injection, schedule: Q04DX002 (ip), vehicle: Klucel (hydroxypropylcellulose) (HPC)
# [4] = dose: 200.0 mg/kg/injection, schedule: Q04DX002 (ip), vehicle: Klucel (hydroxypropylcellulose) (HPC)
# [5] = dose: 400.0 mg/kg/injection, schedule: Q04DX002 (ip), vehicle: Klucel (hydroxypropylcellulose) (HPC)
# [6] = dose: 100.0 mg/kg/injection, schedule: Q01DX001 (ip), vehicle: saline
# [7] = dose: 200.0 mg/kg/injection, schedule: Q01DX001 (ip), vehicle: saline
# [8] = dose: 75.0 mg/kg/injection, schedule: Q01DX001 (ip), vehicle: saline
# [9] = dose: 150.0 mg/kg/injection, schedule: Q01DX001 (ip), vehicle: saline
# [10] = dose: 300.0 mg/kg/injection, schedule: Q01DX001 (ip), vehicle: saline
# [11] = dose: 400.0 mg/kg/injection, schedule: Q01DX001 (ip), vehicle: saline
# [12] = dose: 50.0 mg/kg/injection, schedule: Q01DX001 (ip), vehicle: saline
# [13] = dose: 100.0 mg/kg/injection, schedule: Q01DX009 (ip), vehicle: saline with Tween-80
# [14] = dose: 200.0 mg/kg/injection, schedule: Q01DX009 (ip), vehicle: saline with Tween-80
# [15] = dose: 100.0 mg/kg/injection, schedule: Q04DX002 (ip), vehicle: saline with Tween-80
compound,measurement,setting,value
O=C(O)/C(=C/c1ccccc1)c1ccc2ccccc2c1Br,T/C,"dose: 100.0 mg/kg/injection, schedule: Q01DX009 (ip), vehicle: Klucel (hydroxypropylcellulose) (HPC)",107 % of control
same,T/C,"dose: 100.0 mg/kg/injection, schedule: Q04DX003 (ip), vehicle: other",100 % of control
same,T/C,[1],95 % of control
same,T/C,"dose: 200.0 mg/kg/injection, schedule: Q04DX003 (ip), vehicle: other",100 % of control
same,T/C,[2],109 % of control
same,T/C,"dose: 400.0 mg/kg/injection, schedule: Q04DX003 (ip), vehicle: other",95 % of control
Cc1cccc(C2=N/C(=C\c3ccc4c(c3)OC(O)O4)C(=O)O2)c1 (configuration not stated),T/C,[3],97 % of control
same,T/C,[4],104 % of control
same,T/C,[5],104 % of control
OC(CNc1ccc(Cl)cc1)CN1CCCCC1 (configuration not stated),T/C,"dose: 50.0 mg/kg/injection, schedule: Q04DX003 (ip), vehicle: saline",91 % of control
same,T/C,[6],100 % of control
same,T/C,"dose: 100.0 mg/kg/injection, schedule: Q04DX003 (ip), vehicle: saline",98 % of control
same,T/C,[7],90 % of control
CCN(CC)c1ccc(/C=N/NC(=S)NC23CC4CC(CC(C4)C2)C3)cc1,T/C,[8],100 % of control
same,T/C,[9],101 % of control
same,T/C,[10],92 % of control
CC1=CCC(=C(C)C)C1C(=O)NC1CCCCC1 (configuration not stated),T/C,[6],97 % of control
same,T/C,"dose: 100.0 mg/kg/injection, schedule: Q01DX009 (ip), vehicle: propolene glycol",105 % of control
same,T/C,"dose: 200.0 mg/kg/injection, schedule: Q01DX009 (ip), vehicle: propolene glycol",109 % of control
same,T/C,[11],100 % of control
same,T/C,"dose: 400.0 mg/kg/injection, schedule: Q01DX009 (ip), vehicle: propolene glycol",106 % of control
CC(C)(O)C[N+](=O)[O-],T/C,"dose: 50.0 mg/kg/injection, schedule: Q01DX009 (ip), vehicle: saline",88 % of control
same,T/C,"dose: 100.0 mg/kg/injection, schedule: Q01DX009 (ip), vehicle: saline",88 % of control
same,T/C,"dose: 200.0 mg/kg/injection, schedule: Q01DX009 (ip), vehicle: saline",88 % of control
CCCCC(C)C1(C)C(=O)NC(=O)NC1=O (configuration not stated),T/C,[8],105 % of control
same,T/C,[9],103 % of control
same,T/C,[10],105 % of control
O=C(Nc1ccc(Cl)cc1)NC1CC1,T/C,"dose: 62.5 mg/kg/injection, schedule: Q01DX009 (ip), vehicle: saline with Tween-80",91 % of control
same,T/C,"dose: 125.0 mg/kg/injection, schedule: Q01DX009 (ip), vehicle: saline with Tween-80",90 % of control
same,T/C,"dose: 250.0 mg/kg/injection, schedule: Q01DX009 (ip), vehicle: saline with Tween-80",95 % of control
NC(=S)N/N=C/c1ccc2ccccc2c1,T/C,[12],107 % of control
same,T/C,[6],107 % of control
same,T/C,[7],107 % of control
same,T/C,[11],116 % of control
O=C(NCNC(=O)c1ccccc1)c1ccccc1,T/C,"dose: 100.0 mg/kg/injection, schedule: Q04DX003 (ip), vehicle: Klucel (hydroxypropylcellulose) (HPC)",100 % of control
same,T/C,[1],103 % of control
same,T/C,"dose: 200.0 mg/kg/injection, schedule: Q04DX003 (ip), vehicle: Klucel (hydroxypropylcellulose) (HPC)",90 % of control
same,T/C,[2],92 % of control
same,T/C,"dose: 400.0 mg/kg/injection, schedule: Q04DX003 (ip), vehicle: Klucel (hydroxypropylcellulose) (HPC)",103 % of control
C#CCOCCC(C(=O)O)C(=O)O,T/C,"dose: 100.0 mg/kg/injection, schedule: Q01DX009 (ip), vehicle: acetone",90 % of control
same,T/C,"dose: 100.0 mg/kg/injection, schedule: Q04DX003 (ip), vehicle: acetone",101 % of control
same,T/C,"dose: 200.0 mg/kg/injection, schedule: Q01DX009 (ip), vehicle: acetone",97 % of control
same,T/C,"dose: 200.0 mg/kg/injection, schedule: Q04DX003 (ip), vehicle: acetone",101 % of control
same,T/C,"dose: 400.0 mg/kg/injection, schedule: Q04DX003 (ip), vehicle: acetone",92 % of control
O=C(OCCOc1ccc(Cl)cc1Cl)c1cc(I)cc(I)c1I,T/C,[3],111 % of control
same,T/C,[4],101 % of control
same,T/C,[5],104 % of control
CN(C)/N=C/c1nccc2ccccc12,T/C,[12],98 % of control
same,T/C,[6],93 % of control
same,T/C,[7],93 % of control
COC(=O)c1n[nH]c(C2OCC3OC(C)(C)OC32)c1Br (configuration not stated),T/C,"dose: 100.0 mg/kg/injection, schedule: Q01DX005 (ip), vehicle: saline",100 % of control
same,T/C,"dose: 200.0 mg/kg/injection, schedule: Q01DX005 (ip), vehicle: saline",91 % of control
Cc1c(Cl)ccc2c(C(=O)NN)cc(-c3ccc(Cl)cc3)nc12,T/C,"dose: 100.0 mg/kg/injection, schedule: Q01DX001 (ip), vehicle: saline with Tween-80",92 % of control
same,T/C,"dose: 200.0 mg/kg/injection, schedule: Q01DX001 (ip), vehicle: saline with Tween-80",97 % of control
same,T/C,"dose: 400.0 mg/kg/injection, schedule: Q01DX001 (ip), vehicle: saline with Tween-80",97 % of control
COC1CC(O[C@H]2CC[C@@]3(C)[C@H](CC[C@@H]4[C@@H]3CC[C@]3(C)[C@@H](C5=CC(=O)OC5)[C@@H](OC(C)=O)C[C@]43O)C2)OC(C)C1O (some centres not stated),T/C,"dose: 5.0 mg/kg/injection, schedule: Q01DX001 (ip), vehicle: saline",94 % of control
same,T/C,"dose: 10.0 mg/kg/injection, schedule: Q01DX001 (ip), vehicle: saline",108 % of control
same,T/C,"dose: 20.0 mg/kg/injection, schedule: Q01DX001 (ip), vehicle: saline",100 % of control
same,T/C,"dose: 40.0 mg/kg/injection, schedule: Q01DX001 (ip), vehicle: saline",103 % of control
same,T/C,"dose: 50.0 mg/kg/injection, schedule: Q01DX001 (ip), vehicle: carboxymethylcellulose (CMC)",98 % of control
same,T/C,"dose: 80.0 mg/kg/injection, schedule: Q01DX001 (ip), vehicle: saline",114 % of control
same,T/C,"dose: 100.0 mg/kg/injection, schedule: Q01DX001 (ip), vehicle: carboxymethylcellulose (CMC)",104 % of control
O=C(O)c1cc[c]([Hg][S]c2ncnc3nc[nH]c23)cc1,T/C,"dose: 6.0 mg/kg/injection, schedule: Q01DX Z (ip), vehicle: carboxymethylcellulose (CMC)",105 % of control
same,T/C,"dose: 6.25 mg/kg/injection, schedule: Q01DX015 (ip), vehicle: saline",110 % of control
same,T/C,"dose: 12.0 mg/kg/injection, schedule: Q01DX Z (ip), vehicle: carboxymethylcellulose (CMC)",116 % of control
same,T/C,"dose: 16.5 mg/kg/injection, schedule: Q01DX009 (ip), vehicle: saline",118 % of control
same,T/C,"dose: 25.0 mg/kg/injection, schedule: Q01DX015 (ip), vehicle: saline",164 % of control
same,T/C,"dose: 50.0 mg/kg/injection, schedule: Q01DX Z (ip), vehicle: carboxymethylcellulose (CMC)",103 % of control
same,T/C,"dose: 100.0 mg/kg/injection, schedule: Q01DX Z (ip), vehicle: carboxymethylcellulose (CMC)",114 % of control
COc1cc2c(cc1OCc1ccccc1)C(c1cc(OC)c(OC)c(OC)c1)=C1C(=O)OCC1C2 (configuration not stated),T/C,[6],98 % of control
same,T/C,[7],97 % of control
same,T/C,[11],97 % of control
O=C(O)c1cc(C(=O)O)c(C(=O)O)cc1C(=O)O,T/C,[13],96 % of control
same,T/C,[14],91 % of control
same,T/C,"dose: 400.0 mg/kg/injection, schedule: Q01DX009 (ip), vehicle: saline with Tween-80",94 % of control
O=C(CCCN1CCC(O)(c2ccc(C(F)(F)F)cc2)CC1)c1ccc(N2CCC(O)CC2)cc1,T/C,[15],93 % of control
same,T/C,"dose: 200.0 mg/kg/injection, schedule: Q04DX002 (ip), vehicle: saline with Tween-80",100 % of control
Oc1ccc(Cl)c2c1CCC2,T/C,"dose: 50.0 mg/kg/injection, schedule: Q01DX009 (ip), vehicle: saline with Tween-80",110 % of control
same,T/C,[13],102 % of control
same,T/C,"dose: 100.0 mg/kg/injection, schedule: Q04DX003 (ip), vehicle: saline with Tween-80",101 % of control
same,T/C,[14],104 % of control
same,T/C,"dose: 200.0 mg/kg/injection, schedule: Q04DX003 (ip), vehicle: saline with Tween-80",101 % of control
O=[N+]([O-])c1ccc(S(=O)(=O)OCc2ccccc2COS(=O)(=O)c2ccc([N+](=O)[O-])cc2)cc1,T/C,"dose: 50.0 mg/kg/injection, schedule: Q04DX002 (ip), vehicle: saline with Tween-80",106 % of control
same,T/C,[15],101 % of control
CCCCCCCCCCCCCCCC1CCCC(C)N1 (configuration not stated),T/C,"dose: 6.25 mg/kg/injection, schedule: Q04DX002 (ip), vehicle: saline with Tween-80",104 % of control
same,T/C,"dose: 12.5 mg/kg/injection, schedule: Q04DX002 (ip), vehicle: saline with Tween-80",96 % of control
same,T/C,"dose: 25.0 mg/kg/injection, schedule: Q04DX002 (ip), vehicle: saline with Tween-80",100 % of control
